Data as given in patent US9260504B2, “N- and C-terminal substituted antagonistic analogs of GH-RH” (University of Miami, priority 2008, dated 2016).

Assays:
Format in all cases: in vivo
[1] = test system: NCI-N87 human gastric cancer; assay: NCI-N87 human gastric cancer xenografts in nude mice; conditions: 10 μg/day s.c.
Description: NCI-N87 cancers were transplanted s.c. into both flank areas of 30 female nude mice. The mice were randomly assigned into 4 experimental groups with 6 to 9 animals in each group and received single daily injections for 77 days as follows: 1. Control (vehicle solution); 2. JMR-132 (10 μg/day s.c.); 3. Peptide 1109 (10 μg/day s.c.); 4. Peptide 11479 (10 μg/day s.c.). Tumor volumes were measured once a week. The experiment was ended on day 77 by sacrificing the mice under Isoflurane anesthesia. Resulting tumors were cleaned, weighed, and snap-frozen until further analyses. Statistical analyses of the measurement results were done by two-tailed t-test, p<0.05 being considered significant. Data are presented as the means±S.E.

[2] = test system: HT human diffuse mixed B cell lymphoma cell line; assay: HT human diffuse mixed B cell lymphoma xenografts in nude mice; conditions: 5 μg/day s.c.
Description: The aim of this study was to find out the tumor inhibitor effect of the latest GHRH antagonists (Peptide 11602, Peptide 11604, Peptide 11606, and Peptide 11610) at the dose of 5 μg/day on HT human diffuse mixed B cell lymphoma cell line. Female nude mice were xenografted subcutaneously with approximately 3 mm^3 pieces of HT malignant tumor tissue. When tumors reached the mean volume of approximately 120 mm^3, the animals were randomly assigned into different groups. Tumor volumes and body weight were measured once a week. At the end of the experiment mice were anesthetized and sacrificed. Tumors were carefully excised, weighed and were stored at −80° C. until further investigation. Organs and tumor samples were preserved in 10% formaldehyde.

[3] = test system: H460 human non-small cell lung cancer cell line; assay: H460 human non-small cell lung cancer xenografts in nude mice (Example XV); conditions: 5 μg/day s.c.
Description: The aim of this study was to find out the tumor inhibitor effect of the latest GHRH antagonists (Peptide 11423, Peptide 11602, Peptide 11604, Peptide 11606) on H460 human non-small cell lung cancer cell line. Female nude mice were xenografted subcutaneously with approximately 3 mm^3 pieces of H460 human non-small cell lung cancer malignant tumor tissue. When tumors reached the mean volume of approximately 90 mm^3, the animals was randomly assigned into different groups. Tumor volumes and body weight were measured once a week. At the end of the experiment mice were anesthetized and sacrificed. Tumors were carefully excised, weighed and were stored at −80° C. until further investigation. Organs and tumor samples were preserved in 10% formaldehyde.

[4] = test system: PC-3 human hormone-independent prostate cancer; assay: PC3 androgen-independent prostate cancer xenografts in nude mice (Example XIV)
Description: Male nude mice were implanted s.c. with 3 mm^3 pieces of PC-3 human hormone-independent prostate cancer tissue on both flanks. When tumors reached a volume of approximately 50 mm^3, the mice were divided into 8 experimental groups with 8 to 10 animals in each group and received single daily injections for 28 days as follows: 1. Control (vehicle solution); 2. P-11513 2 μg/day; 3. P-11602 2 μg/day; 4. P-11602 1 μg/day; 5. P-11604 2 μg/day; 6. P-11606 2 μg/day; 7. P-11610 2 μg/day; 8. P-11610 1 μg/day.
Tumor volumes were measured once a week. The experiment was ended on day 28 by sacrificing the mice under Isoflurane anesthesia. Resulting tumors were cleaned, weighed, and snap-frozen until further analyses. Statistical analyses of the measurement results were done by two-tailed t-test, p<0.05 being considered significant.

[(Ac-Ada)^0-Tyr^1, D-Arg^2, (Phe(F)5)^6, Ala^8, Har^9, Tyr(Me)^10, His^11, Orn^12, Abu^15, His^20, Orn^21, Nle^27, D-Arg^28, Har^29]hGH-RH(1-29)NH2 [Peptide 11479]
Number of regressing tumors ([1]; 77 days): 1
Tumor growth after 77 days (%) ([1]; 77 days, means±S.E.): 235 ± 48 %
Tumor weights ([1]; day 77, means±S.E.): 144 ± 41 mg
Tumor doubling time ([1]; calculated without the regressing tumors): 156.7 ± 55.7 days

[(PhAc-Ada)^0-Tyr^1, D-Arg^2, (Phe(F)5)^6, Ala^8, Har^9, Tyr(Me)^10, His^11, Orn^12, Abu^15, His^20, Orn^21, Nle^27, D-Arg^28, Har^29]hGH-RH(1-29)NH2 [Peptide 11602]
TUMOR GROWTH (%) ([2]; day 1 (baseline)): 100%
Tumor inhibition (%) ([2]; day 1 (baseline)): 0%
Tumor volume (mm^3) ([2]; day 1 (baseline)): 194.81 mm^3
TUMOR GROWTH (%) ([2]; day 7): 192.86%
Tumor inhibition (%) ([2]; day 7): 36.94%
Tumor volume (mm^3) ([2]; day 7): 260.13 mm^3
TUMOR GROWTH (%) ([2]; day 14): 281.4%
Tumor inhibition (%) ([2]; day 14): 41.71%
Tumor volume (mm^3) ([2]; day 14): 311.76 mm^3
TUMOR GROWTH (%) ([2]; day 21): 462.45%
Tumor inhibition (%) ([2]; day 21): 40.82%
Tumor volume (mm^3) ([2]; day 21): 332.67 mm^3
TUMOR GROWTH (%) ([2]; day 28): 608.23%
Tumor inhibition (%) ([2]; day 28): 32.15%
Tumor volume (mm^3) ([2]; day 28): 509.24 mm^3
TUMOR GROWTH (%) ([3]; day 1 (baseline)): 100.00%
TUMOR GROWTH (%) ([3]; day 7): 247.89%
Tumor inhibition (%) ([3]; day 7): 53.21%
TUMOR GROWTH (%) ([3]; day 14): 504.42%
Tumor inhibition (%) ([3]; day 14): 63.52%
TUMOR GROWTH (%) ([3]; day 21): 864.16%
Tumor inhibition (%) ([3]; day 21): 65.00%
TUMOR GROWTH (%) ([3]; day 28): 2575.35%
Tumor inhibition (%) ([3]; day 28): 37.18%
TUMOR GROWTH (%) ([4]; 1 μg/day, day 0 (baseline)): 100%
TUMOR GROWTH (%) ([4]; 1 μg/day, day 7): 249.81%
Tumor inhibition (%) ([4]; 1 μg/day, day 7): 24.59%
TUMOR GROWTH (%) ([4]; 1 μg/day, day 14): 295.25%
Tumor inhibition (%) ([4]; 1 μg/day, day 14): 50.04%
TUMOR GROWTH (%) ([4]; 1 μg/day, day 21): 467.74%
Tumor inhibition (%) ([4]; 1 μg/day, day 21): 60.70%
TUMOR GROWTH (%) ([4]; 1 μg/day, day 28): 740.06%
Tumor inhibition (%) ([4]; 1 μg/day, day 28): 60.15%
TUMOR GROWTH (%) ([4]; 2 μg/day, day 0 (baseline)): 100%
TUMOR GROWTH (%) ([4]; 2 μg/day, day 7): 197.77%
Tumor inhibition (%) ([4]; 2 μg/day, day 7): 40.30%
TUMOR GROWTH (%) ([4]; 2 μg/day, day 14): 270.61%
Tumor inhibition (%) ([4]; 2 μg/day, day 14): 54.21%
TUMOR GROWTH (%) ([4]; 2 μg/day, day 21): 449.82%
Tumor inhibition (%) ([4]; 2 μg/day, day 21): 62.20%
TUMOR GROWTH (%) ([4]; 2 μg/day, day 28): 641.31%
Tumor inhibition (%) ([4]; 2 μg/day, day 28): 65.47%

[(PhAc^0-Ada)-Tyr^1, D-Arg^2, (Phe(F)5)^6, (Me-Ala)^8, Har^9, Tyr(Me)^10, His^11, Orn^12, Abu^15, His^20, Orn^21, Nle^27, D-Arg^28, Har^29, Agm^30]hGH-RH(1-29) [Peptide 11606]
TUMOR GROWTH (%) ([2]; day 1 (baseline)): 100%
Tumor inhibition (%) ([2]; day 1 (baseline)): 0%
Tumor volume (mm^3) ([2]; day 1 (baseline)): 128.49 mm^3
TUMOR GROWTH (%) ([2]; day 7): 209.74%
Tumor inhibition (%) ([2]; day 7): 31.38%
Tumor volume (mm^3) ([2]; day 7): 223.02 mm^3
TUMOR GROWTH (%) ([2]; day 14): 352.2%
Tumor inhibition (%) ([2]; day 14): 27.05%
Tumor volume (mm^3) ([2]; day 14): 341.77 mm^3
TUMOR GROWTH (%) ([2]; day 21): 453.71%
Tumor inhibition (%) ([2]; day 21): 41.94%
Tumor volume (mm^3) ([2]; day 21): 510.24 mm^3
TUMOR GROWTH (%) ([2]; day 28): 660.24%
Tumor inhibition (%) ([2]; day 28): 26.35%
Tumor volume (mm^3) ([2]; day 28): 716.13 mm^3
TUMOR GROWTH (%) ([3]; day 1 (baseline)): 100.00%
TUMOR GROWTH (%) ([3]; day 7): 221.26%
Tumor inhibition (%) ([3]; day 7): 58.24%
TUMOR GROWTH (%) ([3]; day 14): 494.68%
Tumor inhibition (%) ([3]; day 14): 64.22%
TUMOR GROWTH (%) ([3]; day 21): 933.19%
Tumor inhibition (%) ([3]; day 21): 62.20%
TUMOR GROWTH (%) ([3]; day 28): 1482.03%
Tumor inhibition (%) ([3]; day 28): 63.85%
TUMOR GROWTH (%) ([4]; 2 μg/day, day 0 (baseline)): 100%
TUMOR GROWTH (%) ([4]; 2 μg/day, day 7): 145.65%
Tumor inhibition (%) ([4]; 2 μg/day, day 7): 56.03%
TUMOR GROWTH (%) ([4]; 2 μg/day, day 14): 307.66%
Tumor inhibition (%) ([4]; 2 μg/day, day 14): 47.94%
TUMOR GROWTH (%) ([4]; 2 μg/day, day 21): 521.69%
Tumor inhibition (%) ([4]; 2 μg/day, day 21): 56.16%
TUMOR GROWTH (%) ([4]; 2 μg/day, day 28): 709.50%
Tumor inhibition (%) ([4]; 2 μg/day, day 28): 61.80%
